This is an account of results in paper doi:10.1101/2023.01.11.523589v2 (biorxiv, 2023).

Test [1] addresses T1, HiBIT-WDR5 (Homo sapiens, UniProt P61964). Put plainly: cell-based. Set-up: species or system HEK293T HiBIT-WDR5. The settings on record: HEK-293T, read-out: CETSA thermal shifts [°C].
For test [2], the target named is HiBIT-WDR5 (HiBIT-tagged full length WDR5) (Homo sapiens, UniProt P61964). Put plainly: in vitro NanoBRET tracer displacement. Format: binding. (In general: In BRET a luciferase serves as donor, and the signal depends on an acceptor being close.)
The target in test [3] is T1, HiBIT-WDR5. Put plainly: cell-based. Set-up: species or system HEK293T HiBIT-WDR5. To be noted: HEK-293T, read-out: Dmax (23-24h) at 7.5 µM in %.

Structures are written as SMILES.

For `Cc1ncsc1-c1ccc([C@H](C)NC(=O)[C@H]2C[C@H](O)CN2C(=O)[C@@H](NC(=O)CNC(=O)c2ccc(F)c(-c3ccc(N4C[C@@H](C)N(C)[C@@H](C)C4)c(NC(=O)c4c[nH]c(=O)cc4C(F)(F)F)c3)c2)C(C)(C)C)cc1` [MS67N], the ΔTm at 10 µM on HiBIT-WDR5 [1] was determined as 11.6 °C.
For `CC(=O)N[C@H](C(=O)N1C[C@H](O)C[C@H]1C(=O)NCc1ccc(-c2scnc2C)cc1)C(C)(C)C` [VH032, reference compound], the IC50 in test [2] was greater than 3 µM.
As for `Cc1ncsc1-c1ccc([C@H](C)NC(=O)[C@@H]2C[C@@H](O)CN2C(=O)[C@@H](NC(=O)CNC(=O)c2ccc(F)c(-c3ccc(N4C[C@@H](C)N(C)[C@@H](C)C4)c(NC(=O)c4c[nH]c(=O)cc4C(F)(F)F)c3)c2)C(C)(C)C)cc1` [MS67], the Dmax at 7.5 µM at HiBIT-WDR5 [3] was 69 ± 4%. On HiBIT-WDR5 [1], the ΔTm at 10 µM was found to be 13.8 °C.
For `CC(=O)N[C@H](C(=O)N1C[C@H](O)C[C@H]1C(=O)NCc1ccc(-c2scnc2C)cc1)C(C)(C)C` [VH032], on HiBIT-WDR5 [1], the ΔTm at 10 µM stood at 2.6 °C.

Usually IC50 stands for the concentration that gives 50% inhibition. Read a low IC50 as greater potency in that assay.
